Test results published in ChEMBL document CHEMBL1201862, “PubChem BioAssay data set” (2004).
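Assay format: 96-well plates, 48-hour exposure. Here, GI50 denotes the concentration required for 50% inhibition of growth.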 Calls of active or inactive are those of the source. Cut-off read from the data, not from the text of the source: active = GI50 up to about 1.1 µM and inactive = higher.

Legend:
Experiment in all cases: growth of human tumour cells (NCI), 48 h
UACC-62 = system: UACC-62
PC-3 = system: PC-3
SF-539 = system: SF-539
Malme-3M = system: Malme-3M
CCRF-CEM = system: CCRF-CEM
TK-10 = system: TK-10
786-0 = system: 786-0
HT-29 = system: HT-29
A549 = system: A549
ACHN = system: ACHN
A498 = system: A498
NCI-H226 = system: NCI-H226
UACC-257 = system: UACC-257
OVCAR-3 = system: OVCAR-3
SK-MEL-5 = system: SK-MEL-5
HCT-15 = system: HCT-15
M14 = system: M14
NCI/ADR-RES = system: NCI/ADR-RES
EKVX = system: EKVX
KM12 = system: KM12

SMILES | GI50 (UACC-62) | GI50 (PC-3) | GI50 (SF-539) | GI50 (Malme-3M) | GI50 (CCRF-CEM) | GI50 (TK-10) | GI50 (786-0) | GI50 (HT-29) | GI50 (A549) | GI50 (ACHN) | GI50 (A498) | GI50 (NCI-H226) | GI50 (UACC-257) | GI50 (OVCAR-3) | GI50 (SK-MEL-5) | GI50 (HCT-15) [µM] | GI50 (M14) | GI50 (NCI/ADR-RES) | GI50 (EKVX) | GI50 (KM12)
O=C(NCCNCCNCCNC(=O)c1cc(-c2ccccc2)nc2ccccc12)c1cc(-c2ccccc2)nc2ccccc12 | 2.05 µM (inactive) | 3.48 µM (inactive) | 2.08 µM (inactive) | 1.87 µM (inactive) | 2.28 µM (inactive) | 3.01 µM (inactive) | 1.66 µM (inactive) | 1.7 µM (inactive) | 5.83 µM (inactive) | 2.13 µM (inactive) | 3.16 µM (inactive) | 2.64 µM (inactive) | 1.72 µM (inactive) | 2.64 µM (inactive) | 1.52 µM (inactive) | 7.08 | 1.82 µM (inactive) | 13.4 µM (inactive) | 5.96 µM (inactive) | 2.24 µM (inactive)
CC(C)(Cl)C(Cl)CC/C(CBr)=C(\Cl)CCl (stereo not given) | 1.67 µM (inactive) | 7.31 µM (inactive) | 4.86 µM (inactive) | 6.85 µM (inactive) | 0.294 µM (active) | 14.1 µM (inactive) | 2.55 µM (inactive) | 2.82 µM (inactive) | 18 µM (inactive) | 14.9 µM (inactive) | 19.4 µM (inactive) | 4.69 µM (inactive) | 3.25 µM (inactive) | 4.48 µM (inactive) | 2.31 µM (inactive) | 1.97 | 1.81 µM (inactive) | 5.81 µM (inactive) | 17.7 µM (inactive) | 7.01 µM (inactive)
CCOC(=O)c1sc2[n+](c1C)C(=O)/C(=C/c1ccccc1Cl)S2 | 0.447 µM (active) | 0.989 µM (active) | 0.472 µM (active) | 11 µM (inactive) | 15.3 µM (inactive) | 15.3 µM (inactive) | 0.618 µM (active) | 3.44 µM (inactive) | 0.9 µM (active) | 1.53 µM (inactive) | 6.92 µM (inactive) | 0.953 µM (active) | 4.83 µM (inactive) | 0.891 µM (active) | 0.421 µM (active) | 0.834 | 2.2 µM (inactive) | 0.342 µM (active) | 3.21 µM (inactive) | 0.425 µM (active)
O=C1CCCCCC1CC(Sc1ccccc1)Sc1ccccc1 (stereo not given) | 81.8 µM (inactive) | 51.6 µM (inactive) | > 100 µM (inactive) | > 100 µM (inactive) | 25.2 µM (inactive) | > 100 µM (inactive) | > 100 µM (inactive) | > 100 µM (inactive) | 39.8 µM (inactive) | > 100 µM (inactive) | > 100 µM (inactive) | > 100 µM (inactive) | 59.8 µM (inactive) | 46.9 µM (inactive) | 52.5 µM (inactive) | > 100 | > 100 µM (inactive) | > 100 µM (inactive) | > 100 µM (inactive) | 60.8 µM (inactive)
CCOC(=O)CCCNC(=O)CCCCC(=O)N(C)C | > 100 µM (inactive) | > 100 µM (inactive) | > 100 µM (inactive) | > 100 µM (inactive) | > 100 µM (inactive) | > 100 µM (inactive) | > 100 µM (inactive) | > 100 µM (inactive) | > 100 µM (inactive) | > 100 µM (inactive) | > 100 µM (inactive) | > 100 µM (inactive) | > 100 µM (inactive) | > 100 µM (inactive) | > 100 µM (inactive) | > 100 | > 100 µM (inactive) | > 100 µM (inactive) | > 100 µM (inactive) | > 100 µM (inactive)
CC1S/C(=N/c2nnc(-c3ccccc3)o2)NC1=O (stereo not given) | 52.6 µM (inactive) | 38.5 µM (inactive) | 30.2 µM (inactive) | 41.4 µM (inactive) | 14.5 µM (inactive) | 58.7 µM (inactive) | 28.3 µM (inactive) | 27.7 µM (inactive) | 37.6 µM (inactive) | 46.5 µM (inactive) | > 100 µM (inactive) | > 100 µM (inactive) | 53.8 µM (inactive) | 18.5 µM (inactive) | 35.9 µM (inactive) | 30.4 | 21.5 µM (inactive) | 36.6 µM (inactive) | 27 µM (inactive) | 46.1 µM (inactive)
COc1cc(C(=O)OCCn2[nH]c(-c3ccc(Cl)cc3)nc2=S)cc(OC)c1OC | > 100 µM (inactive) | > 100 µM (inactive) | 60.8 µM (inactive) | 45.5 µM (inactive) | 33 µM (inactive) | 54.3 µM (inactive) | 62.8 µM (inactive) | > 100 µM (inactive) | 98.6 µM (inactive) | > 100 µM (inactive) | > 100 µM (inactive) | 58.7 µM (inactive) | 44.1 µM (inactive) | 51.3 µM (inactive) | 48.2 µM (inactive) | 36 | 38.3 µM (inactive) | 57 µM (inactive) | 91.6 µM (inactive) | > 100 µM (inactive)
